In ChEMBL document CHEMBL1142345, “Synthesis and biological evaluation of alpha- and beta-6-amido derivatives of 17-cyclopropylmethyl-3, 14beta-dihydroxy-4, 5alpha-epoxymorphinan: potential alcohol-cessation agents” (J Med Chem, 2008):
Activity calls are given as the source filed them. The rule behind the calls is not given here.

Tests used:
[1] = biological target: T1, Delta-type opioid receptor (Homo sapiens, UniProt P41143); assay: Agonist activity at human delta opioid receptorR by [35S]GTPgammaS binding assay; assay type: functional
[2] = biological target: T2, Mu-type opioid receptor (Homo sapiens, UniProt P35372); assay: Displacement of [3H]DAMGO from human mu opioid receptor expressed in CHO cells; assay type: cell-based
[3] = biological target: CYP2C19 (Homo sapiens, UniProt P33261); assay: Inhibition of CYP2C19 at 10 uM; assay type: ADME
[4] = biological target: T1, Delta-type opioid receptor; assay: biochemical
Description: Displacement of [3H]DPDPE from human delta opioid receptor expressed in CHO cells

[5] = biological target: T2, Mu-type opioid receptor
Description: Activity at human mu opioid receptor by [35S]GTPgammaS binding assay

[6] = test system: Rattus norvegicus; assay: Inhibition of self alcohol consumption in rat at 1.5 mg/kg using operant techniques; assay type: functional
[7] = biological target: CYP2D6 (Homo sapiens, UniProt P10635); assay: in vitro
Description: Inhibition of CYP2D6 at 10 uM

[8] = biological target: CYP2C9 (Homo sapiens, UniProt P11712); assay: Inhibition of CYP2C9 at 10 uM; assay type: ADME
[9] = species on record: Homo sapiens; assay: Selectivity ratio of Ki for human mu opioid receptor over Ki for human delta opioid receptor
[10] = biological target: CYP3A4 (Homo sapiens, UniProt P08684); assay: Inhibition of CYP3A4 at 10 uM; assay type: ADME
[11] = biological target: T3, Kappa-type opioid receptor (Homo sapiens, UniProt P41145); assay: Displacement of [3H]U69593 from human kappa opioid receptor expressed in CHO cells; assay type: cell-based
[12] = species on record: Homo sapiens; assay: Selectivity ratio of Ki for human mu opioid receptor over Ki for human kappa opioid receptor
[13] = biological target: T3, Kappa-type opioid receptor; assay: Agonist activity at human kappa opioid receptorR by [35S]GTPgammaS binding assay; assay type: functional
[14] = species on record: Rattus norvegicus; assay: Inhibition of self alcohol consumption in rat using operant techniques; assay type: functional
[15] = Metabolic stability assessed as half life in mouse liver microsomes at 40 uM; assay type: ADME, Microsome
[16] = Metabolic stability assessed as half life in human liver S9 fraction at 40 uM; assay type: ADME, subcellular
[17] = biological target: T4, CYP2B6 (Homo sapiens, UniProt P20813); assay: Inhibition of CYP2B6 at 10 uM; assay type: ADME
T4 sequence (P20813 whole entry): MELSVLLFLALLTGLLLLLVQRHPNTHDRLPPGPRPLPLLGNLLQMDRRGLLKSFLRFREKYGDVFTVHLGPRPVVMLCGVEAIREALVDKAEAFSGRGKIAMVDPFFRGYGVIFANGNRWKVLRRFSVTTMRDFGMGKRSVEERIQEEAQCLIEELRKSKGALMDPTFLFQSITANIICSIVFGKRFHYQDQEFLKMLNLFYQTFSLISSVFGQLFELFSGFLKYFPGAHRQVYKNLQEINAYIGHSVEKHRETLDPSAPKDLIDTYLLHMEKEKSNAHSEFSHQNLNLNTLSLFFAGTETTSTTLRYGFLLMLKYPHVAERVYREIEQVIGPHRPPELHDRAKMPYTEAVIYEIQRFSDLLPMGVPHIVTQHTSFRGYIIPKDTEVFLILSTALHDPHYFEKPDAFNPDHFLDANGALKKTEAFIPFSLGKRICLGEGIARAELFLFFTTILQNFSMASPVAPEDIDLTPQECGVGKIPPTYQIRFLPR

[18] = test system: Rattus norvegicus; assay: Inhibition of self alcohol consumption in rat at 2 mg/kg using operant techniques; assay type: functional
[19] = test system: Rattus norvegicus; assay: Inhibition of self alcohol consumption in rat at 0.025 mg/kg using operant techniques; assay type: functional
[20] = biological target: T1, Delta-type opioid receptor; assay: Activity at human delta opioid receptor by [35S]GTPgammaS binding assay; assay type: functional

CYP2D6, sequence (P10635 whole entry): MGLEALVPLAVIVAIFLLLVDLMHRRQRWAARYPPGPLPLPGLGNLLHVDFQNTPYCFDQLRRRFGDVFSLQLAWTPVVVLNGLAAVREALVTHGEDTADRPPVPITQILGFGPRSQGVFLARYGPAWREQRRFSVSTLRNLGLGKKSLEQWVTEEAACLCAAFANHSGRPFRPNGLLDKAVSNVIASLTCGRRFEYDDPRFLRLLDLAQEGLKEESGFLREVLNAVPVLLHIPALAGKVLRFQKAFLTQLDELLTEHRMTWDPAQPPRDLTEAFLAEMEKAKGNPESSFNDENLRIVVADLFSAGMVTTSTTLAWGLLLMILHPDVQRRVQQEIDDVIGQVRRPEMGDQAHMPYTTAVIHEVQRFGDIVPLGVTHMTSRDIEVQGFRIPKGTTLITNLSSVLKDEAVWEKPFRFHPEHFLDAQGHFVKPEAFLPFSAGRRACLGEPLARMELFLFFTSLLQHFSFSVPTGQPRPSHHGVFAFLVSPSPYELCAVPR
T2 sequence (P35372 whole entry): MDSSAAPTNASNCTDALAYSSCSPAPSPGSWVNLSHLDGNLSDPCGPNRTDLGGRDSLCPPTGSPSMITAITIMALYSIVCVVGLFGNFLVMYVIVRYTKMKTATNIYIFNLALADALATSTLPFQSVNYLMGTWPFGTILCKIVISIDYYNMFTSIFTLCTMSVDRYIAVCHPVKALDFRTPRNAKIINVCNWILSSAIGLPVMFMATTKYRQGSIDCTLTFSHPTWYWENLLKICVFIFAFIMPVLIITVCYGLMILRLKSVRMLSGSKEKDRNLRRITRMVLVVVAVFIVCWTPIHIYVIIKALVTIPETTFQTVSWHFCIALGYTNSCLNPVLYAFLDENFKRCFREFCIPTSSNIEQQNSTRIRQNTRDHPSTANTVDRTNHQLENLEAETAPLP
T1 sequence (P41143 whole entry): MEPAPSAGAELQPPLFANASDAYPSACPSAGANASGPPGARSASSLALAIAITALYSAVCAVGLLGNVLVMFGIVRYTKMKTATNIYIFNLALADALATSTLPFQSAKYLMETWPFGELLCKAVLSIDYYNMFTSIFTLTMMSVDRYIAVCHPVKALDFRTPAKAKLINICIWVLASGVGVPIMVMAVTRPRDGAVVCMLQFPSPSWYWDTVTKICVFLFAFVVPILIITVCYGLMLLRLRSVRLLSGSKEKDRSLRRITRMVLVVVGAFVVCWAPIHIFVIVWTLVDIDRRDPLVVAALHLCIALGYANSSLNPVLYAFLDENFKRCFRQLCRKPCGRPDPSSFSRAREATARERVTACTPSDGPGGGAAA
CYP3A4, sequence (P08684 whole entry): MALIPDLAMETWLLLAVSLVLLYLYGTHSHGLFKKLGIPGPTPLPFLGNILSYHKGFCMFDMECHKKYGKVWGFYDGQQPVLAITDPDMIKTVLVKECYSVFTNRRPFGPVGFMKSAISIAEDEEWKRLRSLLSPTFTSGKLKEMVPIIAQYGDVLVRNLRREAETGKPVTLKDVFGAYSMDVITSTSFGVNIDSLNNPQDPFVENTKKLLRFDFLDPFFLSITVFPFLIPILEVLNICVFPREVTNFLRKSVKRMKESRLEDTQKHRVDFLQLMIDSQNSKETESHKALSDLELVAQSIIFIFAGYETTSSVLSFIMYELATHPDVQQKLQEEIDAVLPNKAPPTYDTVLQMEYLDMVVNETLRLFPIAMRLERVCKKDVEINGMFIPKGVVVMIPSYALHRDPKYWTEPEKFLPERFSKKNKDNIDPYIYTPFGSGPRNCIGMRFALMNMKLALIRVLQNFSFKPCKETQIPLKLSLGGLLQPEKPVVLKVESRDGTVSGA
T3 sequence (P41145 whole entry): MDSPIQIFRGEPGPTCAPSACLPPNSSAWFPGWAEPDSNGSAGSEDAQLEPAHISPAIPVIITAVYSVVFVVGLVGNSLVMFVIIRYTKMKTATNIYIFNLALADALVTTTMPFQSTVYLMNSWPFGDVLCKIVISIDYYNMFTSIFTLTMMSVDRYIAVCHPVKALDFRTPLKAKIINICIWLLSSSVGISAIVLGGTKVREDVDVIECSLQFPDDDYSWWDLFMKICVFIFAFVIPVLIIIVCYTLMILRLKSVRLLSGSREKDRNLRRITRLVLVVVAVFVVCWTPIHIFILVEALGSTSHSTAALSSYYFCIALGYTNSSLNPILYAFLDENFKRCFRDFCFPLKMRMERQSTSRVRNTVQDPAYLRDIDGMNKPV
CYP2C9, sequence (P11712 whole entry): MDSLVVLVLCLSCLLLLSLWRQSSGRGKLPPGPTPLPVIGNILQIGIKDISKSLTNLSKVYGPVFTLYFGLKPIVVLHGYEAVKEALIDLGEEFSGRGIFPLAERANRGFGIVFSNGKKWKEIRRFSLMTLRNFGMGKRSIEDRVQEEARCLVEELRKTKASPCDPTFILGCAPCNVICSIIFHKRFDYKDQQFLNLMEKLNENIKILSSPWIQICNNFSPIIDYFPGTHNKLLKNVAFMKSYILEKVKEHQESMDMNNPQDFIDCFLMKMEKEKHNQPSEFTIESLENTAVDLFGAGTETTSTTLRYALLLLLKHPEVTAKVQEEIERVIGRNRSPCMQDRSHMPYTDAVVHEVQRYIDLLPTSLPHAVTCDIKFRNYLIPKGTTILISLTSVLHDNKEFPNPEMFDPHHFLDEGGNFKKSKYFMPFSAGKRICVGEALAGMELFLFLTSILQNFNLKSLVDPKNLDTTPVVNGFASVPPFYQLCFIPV
CYP2C19, sequence (P33261 whole entry): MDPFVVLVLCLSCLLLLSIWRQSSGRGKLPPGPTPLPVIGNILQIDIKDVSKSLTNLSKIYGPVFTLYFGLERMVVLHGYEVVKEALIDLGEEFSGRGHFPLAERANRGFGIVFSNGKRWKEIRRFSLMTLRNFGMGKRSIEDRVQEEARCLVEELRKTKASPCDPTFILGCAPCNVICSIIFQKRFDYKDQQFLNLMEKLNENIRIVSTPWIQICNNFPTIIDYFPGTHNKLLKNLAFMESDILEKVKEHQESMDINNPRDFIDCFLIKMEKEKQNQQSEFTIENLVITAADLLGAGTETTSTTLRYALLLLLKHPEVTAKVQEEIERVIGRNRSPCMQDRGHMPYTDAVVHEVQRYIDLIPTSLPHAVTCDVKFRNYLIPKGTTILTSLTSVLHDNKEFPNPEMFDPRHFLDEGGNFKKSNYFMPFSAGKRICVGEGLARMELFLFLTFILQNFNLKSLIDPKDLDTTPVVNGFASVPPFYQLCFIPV

CN(C)c1cccc(C(=O)NC2CC[C@@]3(O)[C@H]4Cc5ccc(O)c6c5[C@@]3(CCN4CC3CC3)[C@H]2O6)c1 (some centres undefined)
Activity [1]: Active
Ki [2]: 1.2 nM
inhibition at 10 µM [3]: 70%
Ki [4]: 8.5 nM
Ke [5]: 0.14 nM
inhibition in vivo at 1.5 mg/kg [6]: 17%
inhibition at 10 µM [7]: 23.5%
inhibition at 10 µM [8]: 23.1%
Ratio Ki [9]: 7.08
inhibition at 10 µM [10]: 39.9%
Ki [11]: 1.7 nM
Ratio Ki [12]: 1.42
Activity [13]: Active

O=C(/C=C/Cc1ccccc1)N[C@@H]1CC[C@@]2(O)[C@H]3Cc4ccc(O)c5c4[C@@]2(CCN3CC2CC2)[C@H]1O5
Ki [2]: 0.06 nM
Ki [4]: 8.22 nM
Ratio Ki [9]: 100
Ki [11]: 0.91 nM
Ratio Ki [12]: 20

O=C(N[C@@H]1CC[C@@]2(O)[C@H]3Cc4ccc(O)c5c4[C@@]2(CCN3CC2CC2)[C@H]1O5)c1cccc([N+](=O)[O-])c1
Ki [2]: 0.19 nM
Ki [11]: 0.28 nM

O=C(N[C@@H]1CC[C@@]2(O)[C@H]3Cc4ccc(O)c5c4[C@@]2(CCN3CC2CC2)[C@H]1O5)c1ccccn1
Ki [2]: 0.31 nM
Ki [4]: 56.3 nM
Ratio Ki [9]: 180
Ki [11]: 0.39 nM
Ratio Ki [12]: 1.3

Nc1ccc(C(=O)N[C@@H]2CC[C@@]3(O)[C@H]4Cc5ccc(O)c6c5[C@@]3(CCN4CC3CC3)[C@H]2O6)cc1
Ki [2]: 0.43 nM
Ki [4]: 36.5 nM
Ratio Ki [9]: 85
Ki [11]: 0.4 nM
Ratio Ki [12]: 0.93

O=C(N[C@H]1CC[C@@]2(O)[C@H]3Cc4ccc(O)c5c4[C@@]2(CCN3CC2CC2)[C@H]1O5)c1ccccc1
Ki [2]: 0.21 nM
Ki [11]: 0.78 nM

C=C1CC[C@@]2(O)[C@H]3Cc4ccc(O)c5c4[C@@]2(CCN3CC2CC2)[C@H]1O5
ED50 [14]: 0.04 mg/kg
half-life at 40 µM [15]: 20 min
inhibition at 10 µM [8]: 35.5%
half-life at 40 µM [16]: 20 min

COc1cccc(C(=O)N[C@@H]2CC[C@@]3(O)[C@H]4Cc5ccc(O)c6c5[C@@]3(CCN4CC3CC3)[C@H]2O6)c1
Activity [1]: Active
inhibition at 10 µM [17]: 49.3%
Ki [2]: 0.12 nM
inhibition at 10 µM [3]: 47.1%
Ki [4]: 3.8 nM
Ke [5]: 0.17 nM
inhibition at 10 µM [7]: 31.2%
inhibition in vivo at 2 mg/kg [18]: 75%
Ratio Ki [9]: 32
inhibition at 10 µM [10]: 44.9%
Ki [11]: 0.24 nM
Ratio Ki [12]: 2
Activity [13]: Active

O=C(O)c1ccc(C(=O)N[C@@H]2CC[C@@]3(O)[C@H]4Cc5ccc(O)c6c5[C@@]3(CCN4CC3CC3)[C@H]2O6)cc1
Ki [2]: 10.1 nM
Ki [4]: 79.2 nM
Ratio Ki [9]: 7860
Ki [11]: 151 nM
Ratio Ki [12]: 14.9

O=C(Cc1ccccc1)N[C@@H]1CC[C@@]2(O)[C@H]3Cc4ccc(O)c5c4[C@@]2(CCN3CC2CC2)[C@H]1O5
Ki [2]: 0.16 nM
Ki [4]: 28 nM
Ratio Ki [9]: 180
Ki [11]: 0.43 nM
Ratio Ki [12]: 2.7

COc1cccc(CC(=O)N[C@@H]2CC[C@@]3(O)[C@H]4Cc5ccc(O)c6c5[C@@]3(CCN4CC3CC3)[C@H]2O6)c1
Ki [2]: 0.13 nM
Ki [4]: 15.8 nM
Ratio Ki [9]: 120
Ki [11]: 0.45 nM
Ratio Ki [12]: 3.5

O=C(N[C@@H]1CC[C@@]2(O)[C@H]3Cc4ccc(O)c5c4[C@@]2(CCN3CC2CC2)[C@H]1O5)c1ccc(Cl)cc1
inhibition at 10 µM [17]: 7%
inhibition at 10 µM [3]: 39.1%
ED50 [14]: 0.5 mg/kg
half-life at 40 µM [15]: 255 min
inhibition at 10 µM [7]: 4.7%
inhibition at 10 µM [8]: 28.1%
inhibition at 10 µM [10]: 30.8%

COc1cccc(C(=O)N[C@H]2CC[C@@]3(O)[C@H]4Cc5ccc(O)c6c5[C@@]3(CCN4CC3CC3)[C@H]2O6)c1
Ki [2]: 0.16 nM
Ki [4]: 5.82 nM
half-life at 40 µM [15]: 49 min
Ratio Ki [9]: 36
Ki [11]: 0.72 nM
Ratio Ki [12]: 4.5

O=C(CCc1ccccc1)N[C@@H]1CC[C@@]2(O)[C@H]3Cc4ccc(O)c5c4[C@@]2(CCN3CC2CC2)[C@H]1O5
Ki [2]: 0.12 nM
Ki [4]: 12.2 nM
Ke [5]: 0.15 nM
Ratio Ki [9]: 100
Ki [11]: 0.09 nM
Ratio Ki [12]: 0.8

COc1cc(OC)cc(C(=O)N[C@H]2CC[C@@]3(O)[C@H]4Cc5ccc(O)c6c5[C@@]3(CCN4CC3CC3)[C@H]2O6)c1
Ki [2]: 0.19 nM
Ki [4]: 6.83 nM
Ratio Ki [9]: 36
Ki [11]: 2.41 nM
Ratio Ki [12]: 13

O=C(N[C@@H]1CC[C@@]2(O)[C@H]3Cc4ccc(O)c5c4[C@@]2(CCN3CC2CC2)[C@H]1O5)c1ccccc1
Ki [2]: 0.18 nM
Ki [11]: 0.16 nM

O=C(C[C@@H]1O[C@H](CO)[C@@H](O)[C@H](O)[C@H]1O)N[C@H]1CC[C@@]2(O)[C@H]3Cc4ccc(O)c5c4[C@@]2(CCN3CC2CC2)[C@H]1O5
Ki [2]: 0.67 nM
Ki [4]: 36.9 nM
Ratio Ki [9]: 55
Ki [11]: 2.03 nM
Ratio Ki [12]: 3

COc1ccc(CC(=O)N[C@@H]2CC[C@@]3(O)[C@H]4Cc5ccc(O)c6c5[C@@]3(CCN4CC3CC3)[C@H]2O6)cc1
Ki [2]: 0.27 nM
Ki [4]: 19.9 nM
Ratio Ki [9]: 74
Ki [11]: 0.42 nM
Ratio Ki [12]: 1.6

O=C(N[C@@H]1CC[C@@]2(O)[C@H]3Cc4ccc(O)c5c4[C@@]2(CCN3CC2CC2)[C@H]1O5)c1ccc(Cl)c(Cl)c1
inhibition at 10 µM [3]: 48.3%
inhibition in vivo at 0.025 mg/kg [19]: 77%
inhibition at 10 µM [8]: 32.3%
inhibition at 10 µM [10]: 35.5%
half-life at 40 µM [16]: 346 min

O=C(C[C@@H]1O[C@H](COCc2ccccc2)[C@@H](OCc2ccccc2)[C@H](OCc2ccccc2)[C@H]1OCc1ccccc1)N[C@H]1CC[C@@]2(O)[C@H]3Cc4ccc(O)c5c4[C@@]2(CCN3CC2CC2)[C@H]1O5
Ki [2]: 1.49 nM
Ki [4]: 24.5 nM
Ke [5]: 0.16 nM
Ke [20]: 10.3 nM
Ratio Ki [9]: 16.5
Ki [11]: 0.51 nM
Ratio Ki [12]: 0.34

O=C(N[C@@H]1CC[C@@]2(O)[C@H]3Cc4ccc(O)c5c4[C@@]2(CCN3CC2CC2)[C@H]1O5)c1cccc(O)c1
Ki [2]: 0.13 nM
Ki [4]: 2.73 nM
Ratio Ki [9]: 21
Ki [11]: 0.06 nM
Ratio Ki [12]: 0.5

O=C(C[C@@H]1O[C@H](CO)[C@@H](O)[C@H](O)[C@H]1O)N[C@@H]1CC[C@@]2(O)[C@H]3Cc4ccc(O)c5c4[C@@]2(CCN3CC2CC2)[C@H]1O5
Ki [2]: 0.64 nM
Ki [4]: 99 nM
Ke [5]: 0.37 nM
Ratio Ki [9]: 150
Ki [11]: 4.5 nM
Ratio Ki [12]: 7

O=C(Cc1cccs1)N[C@H]1CC[C@@]2(O)[C@H]3Cc4ccc(O)c5c4[C@@]2(CCN3CC2CC2)[C@H]1O5
Ki [2]: 0.38 nM
Ki [4]: 2.07 nM
Ratio Ki [9]: 5.5
Ki [11]: 2.74 nM
Ratio Ki [12]: 7.2

COc1cc(OC)cc(C(=O)N[C@@H]2CC[C@@]3(O)[C@H]4Cc5ccc(O)c6c5[C@@]3(CCN4CC3CC3)[C@H]2O6)c1
Ki [2]: 0.26 nM
Ki [4]: 17.6 nM
Ratio Ki [9]: 68
Ki [11]: 0.29 nM
Ratio Ki [12]: 1.1

O=C(Cc1cccs1)N[C@@H]1CC[C@@]2(O)[C@H]3Cc4ccc(O)c5c4[C@@]2(CCN3CC2CC2)[C@H]1O5
Ki [2]: 0.43 nM
Ki [4]: 32.4 nM
Ke [5]: 0.41 nM
Ratio Ki [9]: 75
Ki [11]: 1.2 nM
Ratio Ki [12]: 2.8

COC(=O)c1ccc(C(=O)N[C@@H]2CC[C@@]3(O)[C@H]4Cc5ccc(O)c6c5[C@@]3(CCN4CC3CC3)[C@H]2O6)cc1
Ki [2]: 0.21 nM
Ki [4]: 27.2 nM
Ratio Ki [9]: 130
Ki [11]: 0.73 nM
Ratio Ki [12]: 3.5

CC(C)(C)OC(=O)Nc1ccc(C(=O)N[C@@H]2CC[C@@]3(O)[C@H]4Cc5ccc(O)c6c5[C@@]3(CCN4CC3CC3)[C@H]2O6)cc1
Ki [2]: 0.92 nM
Ki [4]: 25.3 nM
Ratio Ki [9]: 28
Ki [11]: 0.79 nM
Ratio Ki [12]: 0.86
